In patent publication US7332474B2, “Peptides and related compounds having thrombopoietic activity” (Amgen Inc., priority 2001, dated 2008):

Assays:
[1] = biological target: T1, c-mpl (Homo sapiens, UniProt P40238); conditions: Cwirla et al., Science 276:1696-1699 (1997); cited from earlier work
T1 sequence (P40238 26-635): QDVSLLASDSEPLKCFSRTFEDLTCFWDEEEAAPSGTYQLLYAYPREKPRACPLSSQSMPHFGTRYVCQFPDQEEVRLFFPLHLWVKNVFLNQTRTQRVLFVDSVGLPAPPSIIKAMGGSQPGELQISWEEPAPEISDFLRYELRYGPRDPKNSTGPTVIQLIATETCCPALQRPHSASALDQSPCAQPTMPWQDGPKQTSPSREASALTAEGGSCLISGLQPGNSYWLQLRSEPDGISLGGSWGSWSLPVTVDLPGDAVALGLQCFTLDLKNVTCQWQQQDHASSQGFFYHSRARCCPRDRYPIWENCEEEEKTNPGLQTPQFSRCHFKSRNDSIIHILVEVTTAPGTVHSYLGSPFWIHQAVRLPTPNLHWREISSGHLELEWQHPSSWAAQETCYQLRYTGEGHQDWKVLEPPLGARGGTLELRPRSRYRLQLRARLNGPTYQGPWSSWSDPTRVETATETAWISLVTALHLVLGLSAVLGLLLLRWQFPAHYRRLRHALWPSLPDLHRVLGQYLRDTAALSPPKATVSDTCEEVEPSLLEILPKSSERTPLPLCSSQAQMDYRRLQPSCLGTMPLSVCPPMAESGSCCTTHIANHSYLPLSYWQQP

[2] = biological target: T1, c-mpl; conditions: Cwirla et al., Science 276:1696-1699 (1997); cited from earlier work; remark: listed apart in the source
[3] = biological target: hu-mpl (Homo sapiens, UniProt P40238); conditions: ratio of KD of TMP1 to KD of peptide
[4] = biological target: murine 32D cells transfected with a human mpl receptor (Homo sapiens, UniProt P40238)
From the text: The murine 32D cell proliferation assay involves the use of murine 32D cells that have been transfected with a human mpl receptor.

Sequence | EC50 [1] | IC50 [2] | Affinity relative to TMP1 [3] | Murine 32D Cell Proliferation Assay (relative to TMP1) [4]
IEGPTLRQWLAARA [TPO mimetic peptide] | 400 nM | 2 nM |  | 
QGALQEGPTLRQWLGWGQWGHS [TMP19] |  |  | 0.07 | 27%
QGCSSGGPTLREWLQCRRMQHS [TMP22] |  |  | >54 | Not Detectable
QGCSWGGPTLKQWLQCVRAKHS [TMP23] |  |  | >54 | Not Detectable
SAQGIEGPTLRQWLAARALETV [TMP1, reference compound] |  |  |  | 100%
